Source: PubChem BioAssay AID180 (DTP/NCI, 2004)
Values joined by “and” are separate entries in the source; they are usually repeats but may differ in a detail not shown here. Identical values can stand only once.

Tested on: BDF1 mice, Adenocarcinoma 755 s.c., tumor weight T/C
Test: NCI In Vivo Anticancer Drug Screen. Data for tumor model Adenocarcinoma 755 (subcutaneous) in B6D2F1 (BDF1) mice
Settings: endpoint: mean tumor weight, higher = larger tumour
Summary of the method: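 Values express treated (T) relative to vehicle-dosed control (C) animals, based on survival or tumour size measured after compound treatment of mice bearing a transplanted tumour.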

[1] = dose: 45.0 mg/kg/injection, schedule: Q01DX011 (ip), vehicle: carboxymethylcellulose (CMC)
[2] = dose: 200.0 mg/kg/injection, schedule: Q01DX011 (ip), vehicle: saline

`Brc1ncnc2nc[nH]c12` was tested, and the T/C (dose: 1.12 mg/kg/injection, schedule: Q01DX011 (ip), vehicle: carboxymethylcellulose (CMC)) was 99 % of control, the T/C (dose: 2.25 mg/kg/injection, schedule: Q01DX011 (ip), vehicle: carboxymethylcellulose (CMC)) was 100 % of control and the T/C (dose: 4.5 mg/kg/injection, schedule: Q01DX011 (ip), vehicle: carboxymethylcellulose (CMC)) was 43 % of control. The T/C (dose: 9.0 mg/kg/injection, schedule: Q01DX011 (ip), vehicle: carboxymethylcellulose (CMC)) was 50 % of control, the T/C (dose: 9.37 mg/kg/injection, schedule: Q01DX011 (ip), vehicle: carboxymethylcellulose (CMC)) was 10 % of control and the T/C (dose: 18.75 mg/kg/injection, schedule: Q01DX011 (ip), vehicle: carboxymethylcellulose (CMC)) was 10 % of control. For the same compound, the T/C (dose: 37.5 mg/kg/injection, schedule: Q01DX011 (ip), vehicle: carboxymethylcellulose (CMC)) was 2 % of control, the T/C (dose: 75.0 mg/kg/injection, schedule: Q01DX011 (ip), vehicle: carboxymethylcellulose (CMC)) was 1 % of control and 6 % of control and the T/C (dose: 150.0 mg/kg/injection, schedule: Q01DX011 (ip), vehicle: carboxymethylcellulose (CMC)) was 6 % of control.
`CC1(O)CC([CH2][Hg][I])OC([CH2][Hg][I])C1` (stereo not given) was tested, and the T/C (dose: 25.0 mg/kg/injection, schedule: Q01DX011 (ip), vehicle: carboxymethylcellulose (CMC)) was 96 % of control and the T/C (dose: 50.0 mg/kg/injection, schedule: Q01DX011 (ip), vehicle: carboxymethylcellulose (CMC)) was 67 % of control.
With `CCn1cnc2ncnc(SCc3ccccc3)c21` the T/C (dose: 16.0 mg/kg/injection, schedule: Q01DX011 (ip), vehicle: carboxymethylcellulose (CMC)) was 107 % of control, the T/C (dose: 31.0 mg/kg/injection, schedule: Q01DX011 (ip), vehicle: carboxymethylcellulose (CMC)) was 89 % of control and the T/C (dose: 62.0 mg/kg/injection, schedule: Q01DX011 (ip), vehicle: carboxymethylcellulose (CMC)) was 46 % of control.
For `Nc1nc(SCc2cccnc2)c2ncn(C3OC(CO)C(O)C3O)c2n1` (stereo not given), the T/C (dose: 1.5 mg/kg/injection, schedule: Q01DX011 (ip), vehicle: methylcellulose (MC)) was 92 % of control, the T/C (dose: 3.1 mg/kg/injection, schedule: Q01DX011 (ip), vehicle: methylcellulose (MC)) was 87 % of control and the T/C (dose: 6.2 mg/kg/injection, schedule: Q01DX011 (ip), vehicle: methylcellulose (MC)) was 12 % of control and 15 % of control.
`Cc1cccc(N=Nc2c(S(=O)(=O)O)cc3cc(NC(=O)Nc4ccc5c(O)c(N=Nc6ccc7cc(S(=O)(=O)O)ccc7c6)c(S(=O)(=O)O)cc5c4)ccc3c2O)c1` was tested, and the T/C [1] was 81 % of control.
With `CNC=O` the T/C (dose: 4.41 mg/kg/injection, schedule: Q01DX011 (ip), vehicle: carboxymethylcellulose (CMC)) was 107 % of control, the T/C (dose: 8.82 mg/kg/injection, schedule: Q01DX011 (ip), vehicle: carboxymethylcellulose (CMC)) was 94 % of control and the T/C (dose: 17.65 mg/kg/injection, schedule: Q01DX011 (ip), vehicle: carboxymethylcellulose (CMC)) was 110 % of control. The T/C (dose: 42.88 mg/kg/injection, schedule: Q01DX011 (ip), vehicle: carboxymethylcellulose (CMC)) was 60 % of control, the T/C [1] was 113 % of control and the T/C (dose: 85.75 mg/kg/injection, schedule: Q01DX011 (ip), vehicle: carboxymethylcellulose (CMC)) was 78 % of control. For the same compound, the T/C (dose: 90.0 mg/kg/injection, schedule: Q01DX011 (ip), vehicle: carboxymethylcellulose (CMC)) was 99 % of control, the T/C (dose: 93.67 mg/kg/injection, schedule: Q01DX011 (ip), vehicle: carboxymethylcellulose (CMC)) was 104 % of control and the T/C (dose: 137.2 mg/kg/injection, schedule: Q01DX011 (ip), vehicle: carboxymethylcellulose (CMC)) was 70 % of control. The T/C (dose: 144.0 mg/kg/injection, schedule: Q01DX011 (ip), vehicle: carboxymethylcellulose (CMC)) was 86 % of control, the T/C (dose: 180.0 mg/kg/injection, schedule: Q01DX011 (ip), vehicle: carboxymethylcellulose (CMC)) was 98 % of control and the T/C (dose: 187.35 mg/kg/injection, schedule: Q01DX011 (ip), vehicle: carboxymethylcellulose (CMC)) was 100 % of control and 111 % of control. The T/C [2] was 31 % of control, the T/C (dose: 228.6 mg/kg/injection, schedule: Q01DX011 (ip), vehicle: carboxymethylcellulose (CMC)) was 65 % of control and the T/C (dose: 240.0 mg/kg/injection, schedule: Q01DX011 (ip), vehicle: carboxymethylcellulose (CMC)) was 101 % of control. The T/C (dose: 250.0 mg/kg/injection, schedule: Q01DX011 (ip), vehicle: saline) was 14 % of control, the T/C (dose: 300.0 mg/kg/injection, schedule: Q01DX011 (ip), vehicle: saline) was 1 % of control and the T/C (dose: 343.0 mg/kg/injection, schedule: Q01DX011 (ip), vehicle: carboxymethylcellulose (CMC)) was 20 % of control and 30 % of control. The T/C (dose: 360.0 mg/kg/injection, schedule: Q01DX011 (ip), vehicle: carboxymethylcellulose (CMC)) was 30 % of control and 35 % of control and the T/C (dose: 374.7 mg/kg/injection, schedule: Q01DX011 (ip), vehicle: carboxymethylcellulose (CMC)) was 103 % of control.
For `CC(=O)NCCSC(=O)C(=O)SCCNC(C)=O`, the T/C (dose: 25.0 mg/kg/injection, schedule: Q01DX011 (ip), vehicle: saline) was 62 % of control, the T/C (dose: 50.0 mg/kg/injection, schedule: Q01DX011 (ip), vehicle: saline) was 65 % of control and the T/C [2] was 42 % of control and 63 % of control.
For `Cc1cn(C2CCCCC2)c(=O)n(-c2ccccc2)c1=O`, the T/C (dose: 15.0 mg/kg/injection, schedule: Q01DX011 (ip), vehicle: methylcellulose (MC)) was 108 % of control, the T/C (dose: 31.0 mg/kg/injection, schedule: Q01DX011 (ip), vehicle: methylcellulose (MC)) was 91 % of control and the T/C (dose: 62.0 mg/kg/injection, schedule: Q01DX011 (ip), vehicle: methylcellulose (MC)) was 93 % of control. The T/C (dose: 125.0 mg/kg/injection, schedule: Q01DX011 (ip), vehicle: methylcellulose (MC)) was 96 % of control and the T/C (dose: 250.0 mg/kg/injection, schedule: Q01DX011 (ip), vehicle: methylcellulose (MC)) was 88 % of control.
For `O=C(CCBr)NCCCNC(=O)CCBr`, the T/C (dose: 25.0 mg/kg/injection, schedule: Q01DX011 (ip), vehicle: methylcellulose (MC)) was 54 % of control and the T/C (dose: 75.0 mg/kg/injection, schedule: Q01DX011 (ip), vehicle: methylcellulose (MC)) was 37 % of control.
`C/C(=N\NC(=O)c1ccncc1)c1ccc(Br)cc1` was tested, and the T/C (dose: 30.0 mg/kg/injection, schedule: Q01DX011 (ip), vehicle: methylcellulose (MC)) was 44 % of control and 49 % of control, the T/C (dose: 120.0 mg/kg/injection, schedule: Q01DX011 (ip), vehicle: methylcellulose (MC)) was 48 % of control and 50 % of control and the T/C (dose: 240.0 mg/kg/injection, schedule: Q01DX011 (ip), vehicle: methylcellulose (MC)) was 32 % of control and 52 % of control. The T/C (dose: 500.0 mg/kg/injection, schedule: Q01DX011 (ip), vehicle: methylcellulose (MC)) was 54 % of control.
In the case of `Cn1c(N)nc2nc[nH]c2c1=S`, the T/C (dose: 4.0 mg/kg/injection, schedule: Q01DX011 (oral), vehicle: carboxymethylcellulose (CMC)) is reported as 114 % of control, the T/C (dose: 4.0 mg/kg/injection, schedule: Q01DX011 (oral), vehicle: saline) is reported as 91 % of control and the T/C (dose: 5.0 mg/kg/injection, schedule: Q01DX011 (ip), vehicle: methylcellulose (MC)) is reported as 4 % of control. The T/C (dose: 6.0 mg/kg/injection, schedule: Q01DX011 (ip), vehicle: methylcellulose (MC)) was 5 % of control, the T/C (dose: 7.0 mg/kg/injection, schedule: Q01DX011 (ip), vehicle: methylcellulose (MC)) was 4 % of control and the T/C (dose: 8.0 mg/kg/injection, schedule: Q01DX011 (oral), vehicle: carboxymethylcellulose (CMC)) was 112 % of control. For the same compound, the T/C (dose: 8.0 mg/kg/injection, schedule: Q01DX011 (oral), vehicle: saline) was 92 % of control, the T/C (dose: 16.0 mg/kg/injection, schedule: Q01DX011 (oral), vehicle: carboxymethylcellulose (CMC)) was 119 % of control and the T/C (dose: 16.0 mg/kg/injection, schedule: Q01DX011 (oral), vehicle: saline) was 80 % of control. For the same compound, the T/C (dose: 32.0 mg/kg/injection, schedule: Q01DX011 (oral), vehicle: carboxymethylcellulose (CMC)) was 203 % of control, the T/C (dose: 32.0 mg/kg/injection, schedule: Q01DX011 (oral), vehicle: saline) was 86 % of control and the T/C (dose: 64.0 mg/kg/injection, schedule: Q01DX011 (oral), vehicle: carboxymethylcellulose (CMC)) was 151 % of control. For the same compound, the T/C (dose: 64.0 mg/kg/injection, schedule: Q01DX011 (oral), vehicle: saline) was 120 % of control, the T/C (dose: 500.0 mg/kg/injection, schedule: Q01DX011 (oral), vehicle: carboxymethylcellulose (CMC)) was 85 % of control and the T/C (dose: 750.0 mg/kg/injection, schedule: Q01DX011 (oral), vehicle: carboxymethylcellulose (CMC)) was 90 % of control. For the same compound, the T/C (dose: 310.0 micrograms/kg/injection, schedule: Q01DX011 (ip), vehicle: methylcellulose (MC)) was 32 % of control, the T/C (dose: 625.0 micrograms/kg/injection, schedule: Q01DX011 (ip), vehicle: methylcellulose (MC)) was 64 % of control and the T/C (dose: 1000.0 micrograms/kg/injection, schedule: Q01DX011 (ip), vehicle: methylcellulose (MC)) was 3 % of control. For the same compound, the T/C (dose: 1250.0 micrograms/kg/injection, schedule: Q01DX011 (ip), vehicle: methylcellulose (MC)) was 18 % of control, the T/C (dose: 2000.0 micrograms/kg/injection, schedule: Q01DX011 (ip), vehicle: methylcellulose (MC)) was 3 % of control and the T/C (dose: 2500.0 micrograms/kg/injection, schedule: Q01DX011 (ip), vehicle: methylcellulose (MC)) was 4 % of control. The T/C (dose: 5000.0 micrograms/kg/injection, schedule: Q01DX011 (ip), vehicle: methylcellulose (MC)) was 4 % of control and the T/C (dose: 7500.0 micrograms/kg/injection, schedule: Q01DX011 (ip), vehicle: methylcellulose (MC)) was 2 % of control.
